# Assay results taken from PubChem BioAssay (NCI).
# Where “and” joins values, the source holds several entries; their conditions need not be identical. Identical values can stand only once.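 1) Cells in 96-well plates. 2) Compound, 48 h, 5 concentrations. 3) Linear interpolation between surrounding doses. 4) Unreached endpoint = highest concentration. The concentration for 50% growth inhibition is given as GI50. TGI: total growth inhibition.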
# Test system: OVCAR-4 ovarian
# Test: growth of human tumour cells (NCI), 48 h
SMILES,TGI,GI50
[N-]=[N+]=N/C1=C/CCCCC(=O)C1,> 100 µM,–
BrCc1cccc(C[P+](c2ccccc2)(c2ccccc2)c2ccccc2)c1,> 100 µM,9020 nM
Cc1ccc(NC(=O)CCc2nnc(N)o2)cc1,> 100 µM,–
Cc1cc(N(CCCNc2ccnc3cc(Cl)ccc23)Cc2ccc3c(c2)OCO3)nc(N2CCOCC2)n1,32.8 µM,402 nM
CCOC(=O)C1SC(=Nc2ccccc2)N=C1C (configuration not stated),> 100 µM,–
O=C1CCC(=O)c2c1c(O)c1ccncc1c2O,25.6 µM,–
CN(C)c1ccc(N=Nc2ccccn2)c(O)c1,24.6 µM,164 nM
C=CCN1CCC23c4c5ccc(O)c4OC2C(=NN=C2CCC4(O)C6Cc7ccc(O)c8c7C4(CCN6CC=C)C2O8)CCC3(O)C1C5 (configuration not stated),40.8 µM,–
CN(C)CCNC(=O)c1cccc2c(Nc3ccc(S(=O)(=O)N=C(N)N)cc3)c3ccccc3nc12,30 µM,–
COC(=O)C1=C(C(=O)OC)C2=S(SC3=C2CCCC3)S1 (configuration not stated),> 100 µM,–
O=C(NNc1ccccc1)C(=O)NNc1ccccc1,> 100 µM,1830 nM
Cc1nc2cc(Nc3nc(Nc4ccc(F)cc4)nc(-c4cccs4)n3)ccc2n1Cc1ccccc1,34.8 µM,3240 nM
Cn1cc(-c2csc(-c3c[nH]c4ccc(Br)cc34)n2)c2cnccc21,5.71 µM,2350 nM
CCOC(=O)c1c(-c2ccc(OC)cc2)c(C#N)c2c(C#N)c(N)nn2c1N,96.7 µM,6110 nM

# Test system: TK-10 renal
# Test: growth of human tumour cells (NCI), 48 h
SMILES,GI50,TGI
Cn1c(Nc2ccc(C(F)(F)F)cc2)nc2cc(Oc3ccnc(-c4ncc(C(F)(F)F)[nH]4)c3)ccc21,2910 nM,16.2 µM
C[C@@]12CCC[C@@](C)(C(=O)O)C1CC[C@]13CC(=O)[C@](CO)(C1)[C@@H](O)CC32 (some centres not stated),> 100000 nM,> 100 µM
O=[N+]([O-])c1ccc(CI)cc1,1850 nM,3.32 µM
Cn1cnnc1Sc1c([N+](=O)[O-])ncn1C,–,> 100 µM
C=CCC1(CN(C)C)CC/C(=C\c2ccc(Cl)cc2)C1=O (configuration not stated),–,> 100 µM
COc1ccc(-c2cc(/C=C/C(=O)c3ccc(OC)c(OC)c3)[nH]n2)cc1,2110 nM,4.31 µM
C[Si](C)(C)/C(I)=C/CO,–,96.9 µM
CC(=O)N1CCC(=O)/C(=C/c2ccccc2)C1,–,> 100 µM
CCCCCCCN=C(N)c1ccc(N2CCN(c3ccc(C(N)=NCCCCCCC)cc3)CC2)cc1,146 nM,1.93 µM
C[Si](C)(C)/C(Br)=C\CCN1C(=O)CCC1=O,–,> 100 µM
Cc1ccc(S(=O)OCc2c(C)c(C)c(COS(=O)c3ccc(C)cc3)c(C)c2C)cc1 (configuration not stated),–,> 100 µM
C[C@]12CCC(=O)C=C1CC[C@@H]1C2CC[C@]2(C)Nc3[nH]ncc3CC12 (some centres not stated),–,> 100 µM
COc1ccc2c(c1)c[n+](C)c1c3cc(OC)c(OC)cc3ccc21,2130 nM and 11200 nM,5.37 µM and 24 µM
O=C1c2cc3c(cc2-c2c1c1cc(Cl)c(Cl)cc1c(=O)n2C[C@H](O)CO)OCO3,57.8 nM,0.934 µM
COc1ccc(/C(=C\C=C(C#N)C#N)Sc2nc3ccccc3s2)cc1,5430 nM,11.8 µM
CC(C)(C)[Si](C)(C)OC1C(=O)C[C@H]2CCCC[C@@H]12 (some centres not stated),–,> 100 µM
CCN(CC)CCSc1c2ccccc2nc2c(OC)ccc(OC)c12,–,17.3 µM
COc1cc(/C=C\c2cc(OC)c(OC)c(OC)c2)cc(N/C=C\C(=O)c2cc(OC)c(OC)c(OC)c2)c1OC,5930 nM,> 100 µM
CCOC(=O)c1ccc(N=Nc2cc(C(=O)OCC)ccc2O)cc1,–,> 100 µM
[N-]=[N+]=N/C1=C/CCCCC(=O)C1,–,> 100 µM
BrCc1cccc(C[P+](c2ccccc2)(c2ccccc2)c2ccccc2)c1,12500 nM,> 100 µM
Cc1ccc(NC(=O)CCc2nnc(N)o2)cc1,–,> 100 µM
CCOC(=O)C1SC(=Nc2ccccc2)N=C1C (configuration not stated),–,> 100 µM
O=C1CCC(=O)c2c1c(O)c1ccncc1c2O,–,33 µM
CN(C)c1ccc(N=Nc2ccccn2)c(O)c1,177 nM,43.9 µM
